Results from ChEMBL document CHEMBL3879894, “Novel pharmaceutical composition for prevention and/or treatment of attention deficit/hyperactivity disorder” (2012).

The molecules below were run on Rattus norvegicus (assay: Prevention of attention deficit/hyperactivity in sc dosed spontaneously hypertensive stroke-prone rat assessed as prolongation of cumulative entry latency administered for 30 mins by passive avoidance response test). Conditions: 0.5 h, read-out: MED.
Assay type: functional

Q: Which minimal effective dose does the source give for `COC(=O)C(c1ccccc1)C1CCCCN1` (stereo unspecified) [METHYLPHENIDATE] here?
A: The minimal effective dose was 0.1 mg/kg.

What follows are molecules tested on Rattus norvegicus (assay: Prevention of attention deficit/hyperactivity in po dosed spontaneously hypertensive stroke-prone rat assessed as prolongation of cumulative entry latency administered for 30 mins by passive avoidance response test). Conditions: 0.5 h, read-out: MED.
Assay type: functional

Q: How did the minimal effective dose turn out when `Fc1ccc(Nc2nc(NCc3ncccn3)nc(Nc3ccc(F)cc3)n2)cc1` was run?
A: The minimal effective dose was 0.03 mg/kg.

Q: `Cl.Nc1nc(Nc2ccc(F)cc2)nc(N(Cc2ccnc(F)c2)c2ccccc2)n1` was tested. Which minimal effective dose did it give?
A: The minimal effective dose was 3 mg/kg.

Q: For `COc1ccc(Nc2nc(NCc3ncccn3)nc(Nc3ccc(F)cc3)n2)cc1`, which minimal effective dose is on record?
A: Its minimal effective dose is 0.3 mg/kg.

Q: Which minimal effective dose does the source give for `Fc1ccc(Nc2nc(NCc3ccncn3)nc(Nc3ccc(F)cc3)n2)cc1` here?
A: The minimal effective dose was 0.03 mg/kg.

Q: How did the minimal effective dose turn out when `Fc1ccc(Nc2nc(NCc3ncccn3)nc(Nc3ccccc3)n2)cc1` was run?
A: Its minimal effective dose is 0.1 mg/kg.
